According to patent publication US6861554B2, “Creatine salt having enhanced nutritional and therapeutic efficacy and compositions containing same” (Biosalts s.r.l., priority 2001, dated 2005):

What was measured:
muscle cells = assay: increase in glucose uptake by the muscle cells with respect to insulin; assay type: cell-based
[1] = stability and hygroscopicity of the salt; assay type: physicochemical

| Compound | Glucose uptake (percentage of increase in the glucose uptake by the muscle cells with respect to insulin) (muscle cells; 2.5 grams of substance) | Glucose uptake (percentage of increase in the glucose uptake by the muscle cells with respect to insulin) (muscle cells; 5.0 grams of substance) | hygroscopicity [1] | stability [1] |
| --- | --- | --- | --- | --- |
| CN(CC(=O)O)C(=N)N.O [Creatine monohydrate, creatine monohydrate] | 1-2% |  |  |  |
| NCCS(=O)(=O)O [Taurine, 2-aminoethanesulphonic acid] | 15-18% |  |  |  |
| Creatine Taurinate |  | 25-28% | non hygroscopic | stable |
